Measurements taken from US20170037117A1, “COMPOSITIONS AND METHODS FOR TREATING METABOLIC DISORDERS” (Salk Institute for Biological Studies, priority 2014, published 2017).
Entries after “also recorded” stand apart in the source; their conditions may differ. Ends that are not written are not given here.

Legend:
[1] = tested on: G1 Fab binding to human α-CGRP on the chip; test: Epitope mapping of antibody G1 by peptide competition using Biacore; settings: for percentage of binding of G1 Fab to human α-CGRP blocked by competing peptide: 10 uM peptide in 50 nM G1 Fab (2000:1 mol peptide/Fab), FIG. 6
Chain of G1 Fab binding to human α-CGRP on the chip (as listed by the source): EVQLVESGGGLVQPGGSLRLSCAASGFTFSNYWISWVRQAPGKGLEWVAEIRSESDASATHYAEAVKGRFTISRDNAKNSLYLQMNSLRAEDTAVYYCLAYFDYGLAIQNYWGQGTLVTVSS
Chain of G1 Fab binding to human α-CGRP on the chip (as listed by the source): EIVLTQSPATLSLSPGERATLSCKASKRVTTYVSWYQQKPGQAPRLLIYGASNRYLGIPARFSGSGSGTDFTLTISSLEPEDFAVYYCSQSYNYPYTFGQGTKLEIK
Text: N-biotinylated human α-CGRP was captured on SA sensor chip. […] Y axis represents percentage of binding blocked by the presence of the competing peptide compared with the binding in the absence of the competing peptide.
Human α-CGRP was purchased as an N-biotinylated version to enable its high-affinity capture via SA sensor chips. […] All these peptides are amidated at the C-terminus.

MIN6 cells = test: Insulin secretion assay of mouse insulinoma cells (MIN6) upon glucose stimulation; format: cell-based; settings: 16.8 mM glucose; for effect on glucose-stimulated insulin release: 100 nM to 500 nM peptide, FIGS. 15A-C, 16A
Procedure: FIGS. 15A-15C: Insulin secretion assay of mouse insulinoma cells (MIN6) upon 16.8 mM glucose stimulation.
FIGS. 16A-16C illustrate insulin secretion and inflammation of the TRPV1 mutant mice. FIG. 16A: Insulin secretion assay of mouse insulinoma cells (MIN6) upon 16.8 mM glucose stimulation with 0.1-0.5 μM synthetic human CGRPα. FIG. 16B: Insulin secretion assay (MIN6) upon 16.8 mM glucose and exendin 4 stimulation.
MIN6 insulinoma cells were obtained at passage 18 from Ulupi Jhala (UCSD, La Jolla, Calif.) and were cultured in DMEM (Life technologies) containing 11 mM glucose, 10% FBS, Glutamax (Invitrogen) and 10 μM β-mercapthoethanol as previously described (Huising et al., Proc. Natl. Acad. Sci. 107:912-917, 2010). Glucose stimulation was performed at low (2.8 mM) and high (16.8 mM). Treatments were diluted in Krebs-Ringer bicarbonate buffer with 2.8 mM glucose.
To mimic pancreatic β-cell glucose mediated insulin release, mouse insulinoma MIN6 cells were used (Huising et al., Proc. Natl. Acad. Sci. 107:912-917, 2010).

[2] = tested on: CRTC1 shuttling in DRG neurons; test: CRTC1 nuclear shuttling in dissociated DRG neuronal cultures (immunostaining); format: cell-based, mouse
[3] = Indirect calorimetry (RER, oxygen consumption) of old wild-type mice treated with CGRP8-37 by osmotic pump; format: in vivo, mouse; settings: old (22-23 months) male WT C57BL/6J mice, osmotic pumps, 5.5 mg/mL, after 6 weeks of treatment
Procedure: FIGS. 15A-15C: Insulin secretion assay of mouse insulinoma cells (MIN6) upon 16.8 mM glucose stimulation. Cells were incubated with 0.1-0.5 μM synthetic peptides for FIG. 15A: rat CGRPα, FIG. 15B: rat CGRPβ and FIG. 15C: rat Substance P, n=4, means±S.E.M, **p<0.01, *p<0.05, Student's t test. FIG. 15D: Serum levels of CGRP measured by ELISA in blood samples from WT and TRPV1 mutants at 3 and 24 months, n=7, means±S.E.M. a, ns and b, p<0.05. FIG. 15E: Respiratory exchange ratio (RER) analysis and oxygen consumption FIG. 15F: of 23 months old male WT animals treated with CGRP8-37 or vehicle control, n=10, means±S.E.M.,**p<0.01, *p<0.05, Student's t test.
Indirect calorimetric studies were conducted in a Comprehensive Lab Animal Monitoring System (Columbus Instruments). For GTT and GSIS, glucose (2 g/kg weight) was intraperitoneally administered and blood glucose was measured from tail bleeds at indicated times after injection using a One Touch Ultra glucometer (LifeScan). For the ITT, 5 hour fasted mice were injected with 1 u/kg of human insulin (Humulin; Eli Lily) and glucose was measured as in the GTT. […] Serum insulin was measured using an UltraSensitive Insulin ELISA kit (Crystal Chem). Serum levels of fasted leptin, adiponectin were measured using Quantikine ELISA Kits (R&D systems). […] CGRP was measured using ELISA (EIAab). […]

P29A (19-37): human α-CGRP mutant fragment, SEQ ID NO: 18, SGGVVKNNFVATNVGSKAF, C-terminally amidated (SGGVVKNNFVATNVGSKAF-NH2; listed as Homo sapiens)
percentage of binding of G1 Fab to human α-CGRP blocked by competing peptide [1]: 100%

1-37 of β-CGRP (WT): human β-CGRP 1-37, SEQ ID NO: 43, ACNTATCVTHRLAGLLSRSGGMVKSNFVPTNVGSKAF, C-terminally amidated
percentage of binding of G1 Fab to human α-CGRP blocked by competing peptide [1]: 100%

rat α-CGRP: rat α-CGRP 1-37, SEQ ID NO: 41, SCNTATCVTHRLAGLLSRSGGVVKDNFVPTNVGSEAF
percentage of binding of G1 Fab to human α-CGRP blocked by competing peptide [1]: 100% | reduction of insulin release, % of the maximum insulin response (MIN6 cells; 100 nM peptide): 46% | effect on glucose-stimulated insulin release (MIN6 cells): insulin release was greatly blunted

COc1cccc(NC(=O)/C=C/c2ccc(Cl)cc2)c1 [SB-366791]
CRTC1 nuclear localization after blockade of TRPV1 ([2]; WT DRG neurons, pretreatment prior to stimulation with FSK and Cap, 10 μM or 2 μM, FIG. 14D): robust nuclear exclusion of CRTC1

G1: humanized IgG2 monoclonal anti-CGRP antagonist antibody; VH SEQ ID NO: 1, VL SEQ ID NO: 2; ATCC PTA-6867 and PTA-6866 [Clone G1]
epitope on human α-CGRP that is recognized by antibody G1 ([1]; Biacore peptide competition and variant affinities): targets a C-terminal epitope of CGRP; also recorded: binds to a C-terminal epitope with F37 and G33 being the most important residues; also recorded: on the C-terminal end of human α-CGRP

8-37: human α-CGRP fragment 8-37, SEQ ID NO: 16, VTHRLAGLLSRSGGVVKNNFVPTNVGSKAF, C-terminally amidated [Clone 8-37]
percentage of binding of G1 Fab to human α-CGRP blocked by competing peptide [1]: 100%

rat β-CGRP: rat β-CGRP 1-37, SEQ ID NO: 44, SCNTATCVTHRLAGLLSRSGGVVKDNFVPTNVGSKAF
percentage of binding of G1 Fab to human α-CGRP blocked by competing peptide [1]: 100% | effect on glucose-stimulated insulin release (MIN6 cells): insulin release was greatly blunted | reduction of insulin release, % of the maximum insulin response (MIN6 cells; 500 nM peptide): 58%

K35E (19-37): human α-CGRP mutant fragment, SEQ ID NO: 20, SGGVVKNNFVPTNVGSEAF, C-terminally amidated (SGGVVKNNFVPTNVGSEAF-NH2; listed as Homo sapiens)
percentage of binding of G1 Fab to human α-CGRP blocked by competing peptide [1]: 100%

K35M (19-37): human α-CGRP mutant fragment, SEQ ID NO: 21, SGGVVKNNFVPTNVGSMAF, C-terminally amidated (SGGVVKNNFVPTNVGSMAF-NH2; listed as Homo sapiens)
percentage of binding of G1 Fab to human α-CGRP blocked by competing peptide [1]: 100%

substance P (RPKPQQFFGLM-NH2; ends and bridges not checked; UniProt P06767 58-68, looked up) [TRPV1 secreted neuropeptide; synthetic rat peptide]
effect on glucose-stimulated insulin release (MIN6 cells): did not alter insulin secretion

COc1cc(CNC(=O)CCCC/C=C/C(C)C)ccc1O [Cap, capsaicin]
CRTC1 nuclear localization [2]: accumulation of CRTC1 in the nuclei of TRPV1-positive cells | Cap-induced CRTC1 shuttling ([2]; TRPV1 mutant DRG neurons, Cap 1 μM, FIG. 14C): abolished

CGRP 8-37: positive control compound (vasodilatation antagonist); CGRP receptor antagonist (Tocris Bioscience) (VTHRLAGLLSRSGGVVKNNFVPTNVGSKAF-NH2; UniProt P06881 90-119, looked up, fragment)
oxygen consumption ([3]; vs controls): increased | respiratory exchange ratio (RER), metabolic circadian shift from night to day ([3]; vs vehicle): reappearance of a more youthful metabolic circadian shift from night to day

K35A (19-37): human α-CGRP mutant fragment, SEQ ID NO: 19, SGGVVKNNFVPTNVGSAAF, C-terminally amidated (SGGVVKNNFVPTNVGSAAF-NH2; listed as Homo sapiens)
percentage of binding of G1 Fab to human α-CGRP blocked by competing peptide [1]: 100%

NC1=N[C@H](O)[C@H]2[C@H]3O[C@]4(O)O[C@@H]([C@@H](O)[C@@]2(N1)[C@@H]4O)[C@]3(O)CO [TTX, Tetrodotoxin]
distribution of CRTC1 [2]: remained mostly cytoplasmic

26-37: human α-CGRP fragment 26-37, SEQ ID NO: 35, NFVPTNVGSKAF, C-terminally amidated [Clone 26-37]
percentage of binding of G1 Fab to human α-CGRP blocked by competing peptide [1]: 100%
